{
  "source": "ChEMBL document CHEMBL1135241",
  "about": "(Bioorg Med Chem Lett, 2002)",
  "key": {"[1]": {"target": "Delta-type opioid receptor (Rattus norvegicus, UniProt P33533)", "sequence (P33533 whole entry)": "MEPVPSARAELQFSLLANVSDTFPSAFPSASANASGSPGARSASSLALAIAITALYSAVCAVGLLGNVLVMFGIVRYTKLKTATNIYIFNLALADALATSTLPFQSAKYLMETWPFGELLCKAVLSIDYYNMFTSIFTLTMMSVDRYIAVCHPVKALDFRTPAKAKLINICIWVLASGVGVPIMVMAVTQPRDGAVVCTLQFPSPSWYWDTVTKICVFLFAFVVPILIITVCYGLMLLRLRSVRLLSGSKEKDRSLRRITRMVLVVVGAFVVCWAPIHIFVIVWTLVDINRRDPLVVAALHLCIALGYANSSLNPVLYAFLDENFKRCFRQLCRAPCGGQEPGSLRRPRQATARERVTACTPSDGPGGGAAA", "test": "Binding affinity against Opioid receptor delta 1 using [3H]DT in rat brain synaptosomes was determined", "assay_type": "subcellular"}, "[2]": {"target": "Mu-type opioid receptor (Cavia porcellus, UniProt P97266)", "sequence (P97266 whole entry)": "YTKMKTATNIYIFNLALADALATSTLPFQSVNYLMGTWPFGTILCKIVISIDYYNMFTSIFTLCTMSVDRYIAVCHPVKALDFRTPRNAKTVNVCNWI", "test": "In vitro biological activity by electrically induced smooth muscle contractions in guinea pig ileum (Opioid receptor mu 1); inhibitory concentration was evaluated", "assay_type": "functional, tissue-based"}, "[3]": {"target": "Delta-type opioid receptor (Mus musculus, UniProt P32300)", "sequence (P32300 whole entry)": "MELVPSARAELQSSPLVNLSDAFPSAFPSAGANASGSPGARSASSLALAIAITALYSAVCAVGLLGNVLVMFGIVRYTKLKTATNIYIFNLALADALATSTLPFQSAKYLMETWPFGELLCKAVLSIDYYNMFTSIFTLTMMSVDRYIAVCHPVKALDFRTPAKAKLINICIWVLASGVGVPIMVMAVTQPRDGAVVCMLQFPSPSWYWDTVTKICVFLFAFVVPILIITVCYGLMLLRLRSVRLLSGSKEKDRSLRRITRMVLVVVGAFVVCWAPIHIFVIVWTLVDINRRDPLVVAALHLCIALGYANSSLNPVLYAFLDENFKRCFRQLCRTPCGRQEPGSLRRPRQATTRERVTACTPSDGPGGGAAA", "test": "In vitro biological activity by electrically induced smooth muscle contractions in mouse vas deferens (Opioid receptor delta 1); inhibitory concentration was evaluated", "assay_type": "functional"}, "[4]": {"target": "Mu-type opioid receptor (Rattus norvegicus, UniProt P33535)", "sequence (P33535 whole entry)": "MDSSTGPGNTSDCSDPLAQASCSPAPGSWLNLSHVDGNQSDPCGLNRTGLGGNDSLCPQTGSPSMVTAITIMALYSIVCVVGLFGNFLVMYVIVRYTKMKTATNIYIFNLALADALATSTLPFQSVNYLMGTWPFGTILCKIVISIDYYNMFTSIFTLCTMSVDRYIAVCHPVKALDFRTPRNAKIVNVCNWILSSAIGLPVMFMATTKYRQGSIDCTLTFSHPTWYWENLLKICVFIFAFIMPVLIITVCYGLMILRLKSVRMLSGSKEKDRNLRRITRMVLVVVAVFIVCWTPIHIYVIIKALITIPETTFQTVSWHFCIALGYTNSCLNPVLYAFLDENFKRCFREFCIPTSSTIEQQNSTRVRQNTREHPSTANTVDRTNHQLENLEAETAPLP", "test": "Binding affinity against Opioid receptor mu 1 using [3H]DAMGO in rat brain synaptosomes was determined", "assay_type": "subcellular"}, "[5]": {"test": "Ratio of inhibitory concentration of guinea pig ileum to mouse vas deferens was determined", "assay_type": "functional"}},
  "data": [
    {"compound": "Cc1cccc(C)c1C[C@H](NC(=O)[C@H](C)NC(=O)[C@@H](N)Cc1ccc(O)cc1)C(=O)N[C@@H](CCC(=O)O)C(=O)N[C@H](C(=O)N[C@H](C(=O)NCC(N)=O)C(C)C)C(C)C", "values": [
      {"measurement": "Ki", "setting": "[1]", "value": 0.00105, "unit": "nM"},
      {"measurement": "IC50", "setting": "[2]", "value": 6700, "unit": "nM"},
      {"measurement": "IC50", "setting": "[3]", "value": 0.022, "unit": "nM"},
      {"measurement": "Ki", "setting": "[4]", "value": 1100, "unit": "nM"},
      {"measurement": "Ratio", "setting": "[5]", "value": 304772}
    ]},
    {"compound": "C[C@@H](NC(=O)[C@@H](N)Cc1ccc(O)cc1)C(=O)N[C@@H](Cc1ccccc1)C(=O)NCC(=O)N[C@@H](Cc1ccc(O)cc1)C(=O)N1CCC[C@H]1C(=O)N[C@@H](CO)C(N)=O", "note": "[DERMORPHIN]", "values": [
      {"measurement": "IC50", "setting": "[2]", "value": 3.74, "unit": "nM"},
      {"measurement": "Ki", "setting": "[4]", "value": 0.092, "unit": "nM"}
    ]},
    {"compound": "Cc1cccc(C)c1C[C@@H](NC(=O)[C@@H](C)NC(=O)[C@@H](N)Cc1ccc(O)cc1)C(=O)NCC(=O)N[C@@H](Cc1ccc(O)cc1)C(=O)N1CCC[C@H]1C(=O)N[C@@H](CO)C(N)=O", "values": [
      {"measurement": "Ki", "setting": "[1]", "value": 3300, "unit": "nM"},
      {"measurement": "IC50", "setting": "[2]", "value": 44.4, "unit": "nM"}
    ]},
    {"compound": "Cc1cccc(C)c1C[C@H](NC(=O)[C@H](C)NC(=O)[C@@H](N)Cc1ccc(O)cc1)C(=O)NCC(=O)N[C@@H](Cc1ccc(O)cc1)C(=O)N1CCC[C@H]1C(=O)N[C@@H](CO)C(N)=O", "values": [
      {"measurement": "Ki", "setting": "[1]", "value": 45.7, "unit": "nM"},
      {"measurement": "IC50", "setting": "[2]", "value": 1.21, "unit": "nM"}
    ]},
    {"compound": "CC(C)[C@H](NC(=O)[C@H](CC(=O)O)NC(=O)[C@H](Cc1ccccc1)NC(=O)[C@@H](C)NC(=O)[C@@H](N)Cc1ccc(O)cc1)C(=O)N[C@H](C(=O)NCC(N)=O)C(C)C", "note": "[DELTORPHIN C]", "values": [
      {"measurement": "Ki", "setting": "[1]", "value": 0.0026, "unit": "nM"},
      {"measurement": "IC50", "setting": "[2]", "value": 5440, "unit": "nM"},
      {"measurement": "Ki", "setting": "[4]", "value": 314, "unit": "nM"}
    ]},
    {"compound": "Cc1cccc(C)c1C[C@@H](NC(=O)[C@@H](C)NC(=O)[C@@H](N)Cc1ccc(O)cc1)C(=O)N[C@@H](CCC(=O)O)C(=O)N[C@H](C(=O)N[C@H](C(=O)NCC(N)=O)C(C)C)C(C)C", "values": [
      {"measurement": "Ki", "setting": "[1]", "value": 111, "unit": "nM"},
      {"measurement": "IC50", "setting": "[2]", "value": 8210, "unit": "nM"},
      {"measurement": "IC50", "setting": "[3]", "value": 145, "unit": "nM"},
      {"measurement": "Ki", "setting": "[4]", "value": 1960, "unit": "nM"},
      {"measurement": "Ratio", "setting": "[5]", "value": 56}
    ]}
  ]
}
